This is an account of results in patent US20190030018A1 (Celgene Corporation, priority 2017, published 2019).

Series [1] concerns IDH2 mutant cell line TF1-R140Q. Nature of the series: Hemoglobinization / EPO induced differentiation assay with flow cytometry. The note with it: EPO induction 7 days. The series is classed as cell-based. The procedure:
(§1) Cells were plated at a density of 0.2e^6 cells/ml of 2 ml culture in 6 well plates.
FIG. 91 provides the dosing schedules used in this study.
(§2) TF1 cells were cultured in the following media: RPMI containing HEPES and L-glutamine, 10% FBS, Pen/Strep, G418 (final conc 500 μg/ml), and GM-CSF (final conc 5 ng/ml). The cells were cultured for 7 days, with or without compound treatment as described in FIG. 91.
(§3) For the hemoglobinization assay, TF1 cells were washed three times with PBS to remove residual GM-CSF then plated at (100,000 cells/ml). Cells were then induced to differentiate using EPO (2 unit/ml). Induction continued for 7 days with changing media on 4th day and adding media with fresh EPO. The cell pellets were collected and imaged for hemoglobinization content (as a surrogate for differentiation into blood lineage). Cells were pelleted, washed, stained with a panel of antibodies and analyzed by flow cytometry, using the following antibodies: […]
Background: A flow cytometer gives signals particle by particle.

The conditions of series [2]: patients, literature value; read-out: clinical Cmax; cited from earlier work.
Series [3] deals with JAK2V617F AML cell lines HEL, SET-2, MUTZ-8. In words: Combination studies with JAK2 inhibitors in AML cell lines, CellTitre-Glo after 3 days. The series is classed as cell-based.
Description: The cell viability was measured by CellTitre-Glo® after 3 days as described elsewhere herein.
Another series deals with AML cell lines. Nature of the series: In vitro combination studies, CellTitre-Glo cell viability (Bliss, Loewe, HSA, CES synergy analysis). To be noted: FLT3 and JAK inhibitors in combination with Compound 1 in MOLM-13 and NOMO-1 cell lines.
Series [4] relates to IL3 independent JAK2 V617F BaF3 cells. In words: Combination studies with JAK2 inhibitors in engineered BaF3 cells, CellTitre-Glo after 3 days. The series is classed as cell-based. The note with it: compared to the IL3 dependent lines. The method, then:
Everolimus was included as a control. The cell viability was then measured by CellTitre-Glo® after 3 days.

Series [5] concerns IDH2 mutant cell line TF1-R140Q. In words: Proliferation (total, HSC and progenitor cell count) in the TF1 assay. The format is cell-based. The procedure: as §1, §2, §3

SMILES strings stand for the structures.

`Nc1nc(Nc2ccnc(C(F)(F)F)c2)nc(-c2cccc(C(F)(F)F)n2)n1` [Compound 2, 6-(6-(trifluoromethyl)pyridin-2-yl)-N^2-(2-(trifluoromethyl)pyridin-4-yl)-1,3,5-triazine-2,4-diamine]: the hemoglobin expression result in series [1] was “increase in hemoglobin expression”.
Broadly, the Cmax is the maximum level reached in the sampled fluid or tissue. Take `C[C@H](Nc1cc(-c2cnn(C)c2)cc(Nc2cnccn2)n1)c1ccc(F)cc1` [NS-018]: the Cmax in series [2] is 2570 nM. Also, the “cell viability, single agent” value in series [3] is listed as “inhibit cell viability”. Besides, the Synergy result in the series on AML cell lines is recorded as “Yes”. Moreover, in series [4], the single agent sensitivity entry is reported as “more sensitive”.
`CC(C)(O)CNc1nc(Nc2ccnc(C(F)(F)F)c2)nc(-c2cccc(C(F)(F)F)n2)n1` [enasidenib, reference compound]: the “proliferation (total, HSC and progenitor cell count)” value in series [5] is “mild growth promoting effect”. Moreover, in series [1], the hemoglobin expression entry was “increase in hemoglobin expression”.
